Experimental findings from patent publication US8309718B2, “4-pyrazolyl-N-arylpyrimidin-2-amines and 4-pyrazolyl-N-heteroarylpyrimidin-2-amines as janus kinase inhibitors” (Incyte Corporation, priority 2007, dated 2012) are described below.

Each structure is given as a SMILES string.

T1 sequence (O60674 828-1132): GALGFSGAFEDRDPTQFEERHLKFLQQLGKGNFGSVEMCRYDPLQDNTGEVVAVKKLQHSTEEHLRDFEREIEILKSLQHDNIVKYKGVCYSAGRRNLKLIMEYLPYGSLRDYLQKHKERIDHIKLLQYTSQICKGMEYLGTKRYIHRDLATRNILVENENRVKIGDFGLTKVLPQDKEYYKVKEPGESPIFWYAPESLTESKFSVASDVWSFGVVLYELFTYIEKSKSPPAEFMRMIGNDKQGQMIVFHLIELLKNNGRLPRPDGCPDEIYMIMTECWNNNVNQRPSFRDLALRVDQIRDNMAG

This assay addresses T1, human JAK2 (Homo sapiens, UniProt O60674).
T1 construct: JAK2 (a.a. 828-1132); His tag (N); made in house; host or cells: insect cells (baculovirus)
Kind of assay: In vitro JAK kinase assay (HTRF, phosphorylation of biotinylated peptide). The class given is biochemical. Particulars: catalytic domain a.a. 828-1132, 30 μM ATP, 500 nM peptide, room temperature 1 hr; read-out: JAK-2 IC50. The protocol:
Compounds herein were tested for inhibitory activity of JAK targets according to the following in vitro assay described in Park et al, Analytical Biochemistry 1999, 269, 94-104. The catalytic domains of human JAK1 (a.a. 837-1142), JAK2 (a.a. 828-1132) and JAK3 (a.a. 781-1124) with an N-terminal His tag were expressed using baculovirus in insect cells and purified. The catalytic activity of JAK1, JAK2 or JAK3 was assayed by measuring the phosphorylation of a biotinylated peptide. The phosphorylated peptide was detected by homogenous time resolved fluorescence (HTRF). IC50s of compounds were measured for each kinase in the reactions that contain the enzyme, ATP and 500 nM peptide in 50 mM Tris (pH 7.8) buffer with 100 mM NaCl, 5 mM DTT, and 0.1 mg/mL (0.01%) BSA. The ATP concentration in the reactions was 90 μM for JAK1, 30 μM for Jak2 and 3 μM for JAK3. Reactions were carried out at room temperature for 1 hr and then stopped with 20 μL 45 mM EDTA, 300 nM SA-APC, 6 nM Eu-Py20 in assay buffer (Perkin Elmer, Boston, Mass.). Binding to the Europium labeled antibody took place for 40 minutes and HTRF signal was measured on a Fusion plate reader (Perkin Elmer, Boston, Mass.). Certain of the above compounds were tested according to this assay.
On to `N#CCC(CC1CCN(C(=O)c2ccc(F)cc2F)CC1)n1cc(-c2ccnc(Nc3ccc(N4CCNCC4)cc3)n2)cn1` (racemic) [Example 2, 4-(1-(2,4-difluorobenzoyl)piperidin-4-yl)-3-(4-(2-(4-(piperazin-1-yl)phenylamino)pyrimidin-4-yl)-1H-pyrazol-1-yl)butanenitrile], for which the IC50 (as a rule, the concentration that gives 50% inhibition) was less than 100 nM. The figure for `COc1ccc(Nc2nccc(-c3cnn(C(CC#N)CC4CCN(C(=O)c5ccc(F)cc5F)CC4)c3)n2)cc1` (racemic) [Example 3, 4-(1-(2,4-difluorobenzoyl)piperidin-4-yl)-3-(4-(2-(4-methoxyphenylamino)pyrimidin-4-yl)-1H-pyrazol-1-yl)butanenitrile] is less than 100 nM. Consider `N#CCC(CC1CCN(C(=O)c2ccc(F)cc2F)CC1)n1cc(-c2ccnc(Nc3ccccc3)n2)cn1` (racemic) [Example 4, 4-(1-(2,4-difluorobenzoyl)piperidin-4-yl)-3-(4-(2-(phenylamino)pyrimidin-4-yl)-1H-pyrazol-1-yl)butanenitrile], for which the half-maximal inhibitory concentration (IC50) was less than 100 nM.

`N#CCC(CC1CCN(C(=O)c2ccc(F)cc2F)CC1)n1cc(-c2ccnc(Nc3ccc(N4CCOCC4)cc3)n2)cn1` (racemic) [Example 5, 4-(1-(2,4-difluorobenzoyl)piperidin-4-yl)-3-(4-(2-(4-morpholinophenylamino)pyrimidin-4-yl)-1H-pyrazol-1-yl)butanenitrile]: the half-inhibitory concentration (IC50) is less than 100 nM.

Consider `N#CCC(CC1CCN(C(=O)c2ccc(F)cc2F)CC1)n1cc(-c2ccnc(Nc3ccc(-n4cccn4)cc3)n2)cn1` (racemic) [Example 6, 3-(4-(2-(4-(1H-pyrazol-1-yl)phenylamino)pyrimidin-4-yl)-1H-pyrazol-1-yl)-4-(1-(2,4-difluorobenzoyl)piperidin-4-yl)butanenitrile], for which the IC50 is less than 100 nM.

For `N#CCC(CC1CCN(C(=O)c2ccc(F)cc2F)CC1)n1cc(-c2ccnc(Nc3cccc(-c4cnco4)c3)n2)cn1` (racemic) [Example 7, 4-(1-(2,4-difluorobenzoyl)piperidin-4-yl)-3-(4-(2-(3-(oxazol-5-yl)phenylamino)pyrimidin-4-yl)-1H-pyrazol-1-yl)butanenitrile], the concentration for half-maximal inhibition (IC50) was less than 100 nM. The figure for `Cn1ccc(Nc2nccc(-c3cnn(C(CC#N)CC4CCN(C(=O)c5ccc(F)cc5F)CC4)c3)n2)n1` (racemic) [Example 8, 4-(1-(2,4-difluorobenzoyl)piperidin-4-yl)-3-(4-(2-(1-methyl-1H-pyrazol-3-ylamino)pyrimidin-4-yl)-1H-pyrazol-1-yl)butanenitrile] is less than 100 nM. The figure for `N#CCC(CC1CCN(C(=O)c2ccc(F)cc2F)CC1)n1cc(-c2ccnc(Nc3ccc(Oc4ccccc4)cc3)n2)cn1` (racemic) [Example 11, 4-(1-(2,4-difluorobenzoyl)piperidin-4-yl)-3-(4-(2-(4-phenoxyphenylamino)pyrimidin-4-yl)-1H-pyrazol-1-yl)butanenitrile] is less than 100 nM; for `N#CCC1(n2cc(-c3ccnc(Nc4ccc(-n5cccn5)cc4)n3)cn2)CCN(C(=O)c2ccno2)CC1` (racemic) [Example 12, 2-(4-(4-(2-(4-(1H-pyrazol-1-yl)phenylamino)pyrimidin-4-yl)-1H-pyrazol-1-yl)-1-(isoxazole-5-carbonyl)piperidin-4-yl)acetonitrile] it is less than 100 nM. With `N#CCC1(n2cc(-c3ccnc(Nc4cccc(-c5cnco5)c4)n3)cn2)CCN(C(=O)c2ccno2)CC1` (racemic) [Example 13, 2-(1-(isoxazole-5-carbonyl)-4-(4-(2-(3-(oxazol-5-yl)phenylamino)pyrimidin-4-yl)-1H-pyrazol-1-yl)piperidin-4-yl)acetonitrile], the IC50 is less than 100 nM. For the compound `N#CCC1(n2cc(-c3ccnc(Nc4cccc(-c5nnn[nH]5)c4)n3)cn2)CCN(C(=O)c2ccno2)CC1` (racemic) [Example 14, 2-(4-(4-(2-(3-(1H-tetrazol-5-yl)phenylamino)pyrimidin-4-yl)-1H-pyrazol-1-yl)-1-(isoxazole-5-carbonyl)piperidin-4-yl)acetonitrile], the IC50 is less than 100 nM. The figure for `N#CCC1(n2cc(-c3ccnc(Nc4ccc(S(=O)(=O)N5CCOCC5)cc4)n3)cn2)CCN(C(=O)c2ccno2)CC1` (racemic) [Example 15, 2-(1-(isoxazole-5-carbonyl)-4-(4-(2-(4-(morpholinosulfonyl)phenylamino)pyrimidin-4-yl)-1H-pyrazol-1-yl)piperidin-4-yl)acetonitrile] is less than 100 nM; for `COc1ccc(Nc2nccc(-c3cnn(C4(CC#N)CCN(C(=O)c5ccno5)CC4)c3)n2)cn1` (racemic) [Example 16, 2-(1-(isoxazole-5-carbonyl)-4-(4-(2-(6-methoxypyridin-3-ylamino)pyrimidin-4-yl)-1H-pyrazol-1-yl)piperidin-4-yl)acetonitrile] it is less than 100 nM. As for `N#CCC1(n2cc(-c3ccnc(Nc4ccc(-n5cccn5)cc4)n3)cn2)CN(S(=O)(=O)C2CC2)C1` (racemic) [Example 17, 2-(3-(4-(2-(4-(1H-pyrazol-1-yl)phenylamino)pyrimidin-4-yl)-1H-pyrazol-1-yl)-1-(cyclopropylsulfonyl)azetidin-3-yl)acetonitrile], the 50% inhibitory concentration (IC50) is less than 100 nM. For the compound `N#CCC(C1CCNCC1)n1cc(-c2ccnc(Nc3ccc(N4CCOCC4)cc3)n2)cn1` (racemic) [Example 22, 3-(4-(2-(4-morpholinophenylamino)pyrimidin-4-yl)-1H-pyrazol-1-yl)-3-(piperidin-4-yl)propanenitrile], the 50% inhibitory concentration (IC50) was less than 100 nM.

Take `N#CCC(C1CCN(c2ncc(F)cn2)CC1)n1cc(-c2ccnc(Nc3ccc(N4CCOCC4)cc3)n2)cn1` (racemic) [Example 23, 3-(1-(5-fluoropyrimidin-2-yl)piperidin-4-yl)-3-(4-(2-(4-morpholinophenylamino)pyrimidin-4-yl)-1H-pyrazol-1-yl)propanenitrile]: the concentration for half-maximal inhibition (IC50) is less than 100 nM. As for `CS(=O)(=O)N1CCC(C(CC#N)n2cc(-c3ccnc(Nc4ccc(N5CCOCC5)cc4)n3)cn2)CC1` (racemic) [Example 24, 3-(1-(methylsulfonyl)piperidin-4-yl)-3-(4-(2-(4-morpholinophenylamino)pyrimidin-4-yl)-1H-pyrazol-1-yl)propanenitrile], the half-maximal inhibitory concentration (IC50) was less than 100 nM.

`N#CCC(C1CCN(S(=O)(=O)c2ccccc2)CC1)n1cc(-c2ccnc(Nc3ccc(N4CCOCC4)cc3)n2)cn1` (racemic) [Example 25, 3-(4-(2-(4-morpholinophenylamino)pyrimidin-4-yl)-1H-pyrazol-1-yl)-3-(1-(phenylsulfonyl)piperidin-4-yl)propanenitrile]: the IC50 is less than 100 nM. As for `CC(=O)N1CCC(C(CC#N)n2cc(-c3ccnc(Nc4ccc(N5CCOCC5)cc4)n3)cn2)CC1` (racemic) [Example 26, 3-(1-acetylpiperidin-4-yl)-3-(4-(2-(4-morpholinophenylamino)pyrimidin-4-yl)-1H-pyrazol-1-yl)propanenitrile], the IC50 is less than 100 nM. As to `N#CCC(C1CCN(C(=O)c2ccccc2)CC1)n1cc(-c2ccnc(Nc3ccc(N4CCOCC4)cc3)n2)cn1` (racemic) [Example 27, 3-(1-benzoylpiperidin-4-yl)-3-(4-(2-(4-morpholinophenylamino)pyrimidin-4-yl)-1H-pyrazol-1-yl)propanenitrile], the 50% inhibitory concentration (IC50) was less than 100 nM. For `N#CCC(C1CCCC1)n1cc(-c2ccnc(Nc3ccc(C(N)=O)cc3)n2)cn1` (racemic) [Example 33, 4-(4-(1-(2-cyano-1-cyclopentylethyl)-1H-pyrazol-4-yl)pyrimidin-2-ylamino)benzamide], the IC50 was less than 100 nM. In the case of `N#CCC(C1CCCC1)n1cc(-c2ccnc(Nc3ccc(-n4cccn4)cc3)n2)cn1` (racemic) [Example 34, 3-(4-(2-(4-(1H-pyrazol-1-yl)phenylamino)pyrimidin-4-yl)-1H-pyrazol-1-yl)-3-cyclopentylpropanenitrile], the IC50 was less than 100 nM. Turning to `N#CCC(C1CCCC1)n1cc(-c2ccnc(Nc3ccc(N4CCOCC4)cc3)n2)cn1` (racemic) [Example 35, 3-cyclopentyl-3-(4-(2-(4-morpholinophenylamino)pyrimidin-4-yl)-1H-pyrazol-1-yl)propanenitrile], the IC50 is less than 100 nM. As for `N#CCC(C1CCCC1)n1cc(-c2ccnc(Nc3ccccc3)n2)cn1` (racemic) [Example 36, 3-cyclopentyl-3-(4-(2-(phenylamino)pyrimidin-4-yl)-1H-pyrazol-1-yl)propanenitrile], the concentration for half-maximal inhibition (IC50) was less than 100 nM.

Consider `N#CCC(C1CCCC1)n1cc(-c2ccnc(Nc3cccc(-c4cnco4)c3)n2)cn1` (racemic) [Example 37, 3-cyclopentyl-3-(4-(2-(3-(oxazol-5-yl)phenylamino)pyrimidin-4-yl)-1H-pyrazol-1-yl)propanenitrile], for which the IC50 was less than 100 nM. `COc1ccc(Nc2nccc(-c3cnn(C(CC#N)C4CCCC4)c3)n2)cc1` (racemic) [Example 38, 3-cyclopentyl-3-(4-(2-(4-methoxyphenylamino)pyrimidin-4-yl)-1H-pyrazol-1-yl)propanenitrile]: the IC50 is less than 100 nM.

With `CC(=O)Nc1ccc(Nc2nccc(-c3cnn(C(CC#N)C4CCCC4)c3)n2)cc1` (racemic) [Example 39, N-(4-(4-(1-(2-cyano-1-cyclopentylethyl)-1H-pyrazol-4-yl)pyrimidin-2-ylamino)phenyl)acetamide], the IC50 is less than 100 nM.
